Test results reported in the NIST ThermoML archive (doi:10.1016/j.fluid.2015.07.030).
Numbers after ± are expanded uncertainties.

Assay: refractive index (other wavelength) (dimensionless); xn = mol fraction of the nth substance listed
Details: 95.99 kPa, Liquid, Standard Abbe refractometry

OCCOCCOCCO [triethylene glycol] + O
refractive index
Details	Wavelength=404.7 nm	Wavelength=435.8 nm	Wavelength=486.1 nm	Wavelength=546.1 nm	Wavelength=587.6 nm	Wavelength=589.3 nm	Wavelength=632.8 nm	Wavelength=644 nm	Wavelength=706.5 nm
303.15 K, x2 = 0	–	–	–	–	–	1.45267 ± 0.00033	1.4511 ± 0.00033	1.45075 ± 0.00033	1.44903 ± 0.00033
303.15 K, x2 = 0.1056	–	–	–	–	–	1.45131 ± 0.00033	1.44977 ± 0.00033	1.44941 ± 0.00033	1.44768 ± 0.00033
303.15 K, x2 = 0.2069	–	–	–	–	–	1.44969 ± 0.00032	1.44815 ± 0.00032	1.4478 ± 0.00032	1.44609 ± 0.00032
303.15 K, x2 = 0.3104	–	–	–	–	–	1.44605 ± 0.00032	1.44452 ± 0.00032	1.44417 ± 0.00032	1.44246 ± 0.00032
303.15 K, x2 = 0.4844	–	–	–	–	–	1.44261 ± 0.00032	1.44109 ± 0.00032	1.44075 ± 0.00032	1.43906 ± 0.00032
303.15 K, x2 = 0.5016	–	–	–	–	–	1.44163 ± 0.00032	1.44012 ± 0.00032	1.43978 ± 0.00032	1.4381 ± 0.00032
303.15 K, x2 = 0.5952	–	–	–	–	–	1.43507 ± 0.00032	1.43356 ± 0.00032	1.43321 ± 0.00032	1.43153 ± 0.00032
303.15 K, x2 = 0.6016	–	–	–	–	–	1.43519 ± 0.00032	1.43369 ± 0.00032	1.43334 ± 0.00032	1.43165 ± 0.00032
303.15 K, x2 = 0.6788	–	–	–	–	–	1.42871 ± 0.00032	1.42724 ± 0.00032	1.42689 ± 0.00032	1.4252 ± 0.00032
303.15 K, x2 = 0.7835	–	–	–	–	–	1.41945 ± 0.00032	1.41799 ± 0.00032	1.41765 ± 0.00032	1.41598 ± 0.00032
303.15 K, x2 = 0.8184	–	–	–	–	–	1.41428 ± 0.00032	1.41284 ± 0.00032	1.41249 ± 0.00032	1.41081 ± 0.00032
303.15 K, x2 = 0.8473	–	–	–	–	1.40803 ± 0.00032	1.40797 ± 0.00032	1.40655 ± 0.00032	1.4062 ± 0.00032	1.40454 ± 0.00032
303.15 K, x2 = 0.8719	–	–	–	–	1.40124 ± 0.00032	1.40118 ± 0.00032	1.39977 ± 0.00032	1.39943 ± 0.00032	1.39777 ± 0.00032
303.15 K, x2 = 0.8926	–	–	–	–	1.39369 ± 0.00032	1.39363 ± 0.00032	1.39224 ± 0.00032	1.39191 ± 0.00032	1.39029 ± 0.00032
303.15 K, x2 = 0.9106	–	–	–	–	1.38817 ± 0.00032	1.38811 ± 0.00032	1.38673 ± 0.00032	1.38639 ± 0.00032	1.38476 ± 0.00032
303.15 K, x2 = 0.9254	–	–	–	–	1.37798 ± 0.00032	1.37792 ± 0.00032	1.37655 ± 0.00032	1.37622 ± 0.00032	1.37461 ± 0.00032
303.15 K, x2 = 0.9303	–	–	–	–	1.37934 ± 0.00031	1.37928 ± 0.00031	1.37792 ± 0.00031	1.37759 ± 0.00031	1.37597 ± 0.00031
303.15 K, x2 = 0.9391	–	–	–	–	1.37533 ± 0.00031	1.37531 ± 0.00031	1.37393 ± 0.00031	1.37361 ± 0.00031	1.37201 ± 0.00031
303.15 K, x2 = 0.951	–	–	–	–	1.36879 ± 0.00031	1.36873 ± 0.00031	1.36739 ± 0.00031	1.36708 ± 0.00031	1.36548 ± 0.00031
303.15 K, x2 = 0.9599	–	–	–	–	1.36294 ± 0.00031	1.36288 ± 0.00031	1.36155 ± 0.00031	1.36123 ± 0.00031	1.35966 ± 0.00031
303.15 K, x2 = 0.9708	–	–	–	–	1.35503 ± 0.00031	1.35497 ± 0.00031	1.35367 ± 0.00031	1.35335 ± 0.00031	1.35178 ± 0.00031
303.15 K, x2 = 0.979	–	–	–	–	1.35005 ± 0.00031	1.34999 ± 0.00031	1.34869 ± 0.00031	1.34838 ± 0.00031	1.34683 ± 0.00031
303.15 K, x2 = 0.9867	–	–	–	–	1.34407 ± 0.00031	1.34402 ± 0.00031	1.34275 ± 0.00031	1.34244 ± 0.00031	1.34092 ± 0.00031
303.15 K, x2 = 0.9936	–	–	–	–	1.33792 ± 0.00031	1.33786 ± 0.00031	1.3366 ± 0.00031	1.3363 ± 0.00031	1.33481 ± 0.00031
308.15 K, x2 = 0	1.46397 ± 0.00033	1.46043 ± 0.00033	1.45629 ± 0.00033	1.45285 ± 0.00033	1.45106 ± 0.00033	1.45099 ± 0.00033	1.44945 ± 0.00033	–	–
308.15 K, x2 = 0.1056	1.46262 ± 0.00033	1.4591 ± 0.00033	1.45496 ± 0.00033	1.45153 ± 0.00033	1.44974 ± 0.00033	1.44967 ± 0.00033	1.44814 ± 0.00033	–	–
308.15 K, x2 = 0.2069	1.46101 ± 0.00032	1.4575 ± 0.00032	1.45334 ± 0.00032	1.44996 ± 0.00032	1.44816 ± 0.00032	1.44809 ± 0.00032	1.44655 ± 0.00032	–	–
308.15 K, x2 = 0.3104	1.45847 ± 0.00032	1.45498 ± 0.00032	1.45085 ± 0.00032	1.44745 ± 0.00032	1.44566 ± 0.00032	1.44561 ± 0.00032	1.44407 ± 0.00032	–	–
308.15 K, x2 = 0.4844	1.45365 ± 0.00032	1.45024 ± 0.00032	1.44616 ± 0.00032	1.44282 ± 0.00032	1.44105 ± 0.00032	1.44098 ± 0.00032	1.43947 ± 0.00032	–	–
308.15 K, x2 = 0.5016	1.45268 ± 0.00032	1.44927 ± 0.00032	1.4452 ± 0.0003	1.44188 ± 0.00032	1.44011 ± 0.00032	1.44065 ± 0.00032	1.43853 ± 0.00032	–	–
308.15 K, x2 = 0.5952	1.44587 ± 0.00032	1.44251 ± 0.00032	1.43858 ± 0.00032	1.43529 ± 0.00032	1.43357 ± 0.00032	1.4335 ± 0.00032	1.43202 ± 0.00032	–	–
308.15 K, x2 = 0.6016	1.44608 ± 0.00032	1.44288 ± 0.00032	1.43766 ± 0.00032	1.43458 ± 0.00032	1.43283 ± 0.00032	1.43274 ± 0.00032	1.43225 ± 0.00032	–	–
308.15 K, x2 = 0.6788	1.43943 ± 0.00032	1.43608 ± 0.00032	1.43224 ± 0.00032	1.42901 ± 0.00032	1.42731 ± 0.00032	1.42725 ± 0.00032	1.42577 ± 0.00032	–	–
308.15 K, x2 = 0.7835	1.43059 ± 0.00032	1.42735 ± 0.00032	1.42362 ± 0.00032	1.42052 ± 0.00032	1.41887 ± 0.00032	1.4188 ± 0.00032	1.41735 ± 0.00032	–	–
308.15 K, x2 = 0.8184	1.4247 ± 0.00032	1.42147 ± 0.00032	1.41778 ± 0.00032	1.41468 ± 0.00032	1.41303 ± 0.00032	1.41297 ± 0.00032	1.41153 ± 0.00032	–	–
308.15 K, x2 = 0.8473	1.41822 ± 0.00032	1.41506 ± 0.00032	1.41139 ± 0.00032	1.40833 ± 0.00032	1.40675 ± 0.00032	1.40666 ± 0.00032	1.40524 ± 0.00032	–	–
308.15 K, x2 = 0.8719	1.41127 ± 0.00032	1.40816 ± 0.00032	1.40459 ± 0.00032	1.40157 ± 0.00032	1.39999 ± 0.00032	1.39993 ± 0.00032	1.39853 ± 0.00032	–	–
308.15 K, x2 = 0.8926	1.40352 ± 0.00032	1.40046 ± 0.00032	1.39696 ± 0.00032	1.39401 ± 0.00032	1.39245 ± 0.00032	1.39239 ± 0.00032	1.39102 ± 0.00032	–	–
308.15 K, x2 = 0.9106	1.39814 ± 0.00032	1.3951 ± 0.00034	1.39162 ± 0.00032	1.38868 ± 0.00032	1.38711 ± 0.00032	1.38705 ± 0.00032	1.38567 ± 0.00032	–	–
308.15 K, x2 = 0.9254	1.38807 ± 0.00032	1.38515 ± 0.00032	1.38181 ± 0.00032	1.37898 ± 0.00032	1.37744 ± 0.00032	1.37739 ± 0.00032	1.37602 ± 0.00032	–	–
308.15 K, x2 = 0.9303	1.38901 ± 0.00031	1.38605 ± 0.00031	1.38268 ± 0.00031	1.37985 ± 0.00031	1.37833 ± 0.00031	1.37828 ± 0.00031	1.37692 ± 0.00031	–	–
308.15 K, x2 = 0.9391	1.38539 ± 0.00031	1.38243 ± 0.00031	1.37908 ± 0.00031	1.37624 ± 0.00031	1.37471 ± 0.00031	1.37465 ± 0.00031	–	–	–
308.15 K, x2 = 0.951	1.37872 ± 0.00031	1.37585 ± 0.00031	1.37256 ± 0.00031	1.36977 ± 0.00031	1.36826 ± 0.00031	1.36821 ± 0.00031	–	–	–
308.15 K, x2 = 0.9599	1.37231 ± 0.00031	1.3695 ± 0.00031	1.36628 ± 0.00031	1.36351 ± 0.00031	1.36202 ± 0.00031	1.36197 ± 0.00031	–	–	–
308.15 K, x2 = 0.9708	1.36448 ± 0.00031	1.36175 ± 0.00031	1.35858 ± 0.00031	1.35587 ± 0.00031	1.35442 ± 0.00031	1.35436 ± 0.00031	–	–	–
308.15 K, x2 = 0.979	1.35959 ± 0.00031	1.3569 ± 0.00031	1.35382 ± 0.00031	1.35111 ± 0.00031	1.34968 ± 0.00031	1.34963 ± 0.00031	–	–	–
308.15 K, x2 = 0.9867	1.35319 ± 0.00031	1.35054 ± 0.00031	1.34746 ± 0.00031	1.34481 ± 0.00031	1.34338 ± 0.00031	1.34332 ± 0.00031	–	–	–
308.15 K, x2 = 0.9936	1.34702 ± 0.00031	1.34444 ± 0.00031	1.34138 ± 0.00031	1.33876 ± 0.00031	1.33735 ± 0.00031	1.3373 ± 0.00031	–	–	–
